The values that follow come from patent US5786517A, “Metal-ligand complex catalyzed processes” (Union Carbide Chemicals & Plastics Technology Corporation, priority 1996, dated 1998).

Data set [1] is described as follows: Extraction of base from butyraldehyde into equimolar aqueous H3PO3 (Example 5, Table A). The format is physicochemical. How it is done:
The following series of experiments were performed in order to determine the relationship of the pKa of a base to the effectiveness of the base to remain in the organic phase upon contact with an equimolar aqueous acid solution. In all cases the experiments were performed under nitrogen, unless otherwise specified.
Solutions were prepared by dissolving a quantity of acid or base in solvent so that the final concentration was equal to 0.1 moles/liter. The 1×10^-3 moles/liter solutions were prepared by taking an aliquot of the 0.1 moles/liter solution and diluting to the specified concentration. The 1×10^-5 moles/liter solutions were prepared in the same manner as the 1×10^-3 moles/liter solution with the modification of using an aliquot of the 1×10^-3 moles/liter solution in place of the 0.1 moles/liter solution.
In each extraction experiment, 5 milliliters of base solution in butyraldehyde was added to a clean, dry vial. To this vial was added 5 milliliters of equimolar H3 PO3 solution. The resulting mixture was rapidly shaken for several minutes and then allowed to phase separate. A 1 milliliter aliquot of the aqueous layer was then transferred to a clean, dry vial. To this vial was added 1 milliliter of pH 7 sodium/potassium phosphate buffer and 0.1 milliliter of Tergitol® 15-S-9 surfactant. The solution was shaken vigorously, and an aliquot was analyzed by high performance liquid chromatography for base content. The amount of base was then compared with a dichloromethane solution at the initial concentration. The partition coefficients calculated are for partitioning of the base from the organic phase to the water phase and is defined as K=amount of base in the water phase/amount of base in the organic phase.

The nature of data set [2]: Stability of Ligand F in rhodium-containing butyraldehyde solution by HPLC (Examples 2-4).
Data set [3] is described as follows: Partition of hydroxy butyl phosphonic acid between butyraldehyde and water (Example 1). The data set is classed as physicochemical. As for the experimental part:
Into a glass vessel was added a stock solution of 536 parts per million of hydroxy butyl phosphonic acid in butyraldehyde. This solution was contacted with water in a weight ratio of 1.18:1 grams water to grams aldehyde/acid stock solution. The aldehyde and water phase were contacted thoroughly to allow the separation of acid between the organic and the aqueous layer to reach equilibrium. The aldehyde phase was analyzed for hydroxy butyl phosphonic acid by ion chromatography after contact with the water giving 52.3 parts per million of hydroxy butyl phosphonic acid. The water phase was also analyzed by ion chromatography for the acid. The water phase contained 414 parts per million of hydroxy butyl phosphonic acid. The partition coefficient between the water and the butyraldehyde phase was 414/52.3 or 7.92.

The mark [4] stands for this setting: base 1 × 10^-3 moles/liter in butyraldehyde, H3PO3 1 × 10^-3 moles/liter.
Where [5] appears, read: base 1 × 10^-5 moles/liter in butyraldehyde, H3PO3 1 × 10^-5 moles/liter.
Where [6] appears, read: 536 ppm stock in butyraldehyde, 1.18:1 grams water to grams aldehyde/acid stock, ion chromatography.

As to `O=C1CCCN1Cc1ccccc1` [1-benzyl-2-pyrrolidinone], the “K (amount of base in the water phase/amount of base in the organic phase)” value is 0.02 in data set [1] (setting [4]) and 0.00 in data set [1] (setting [5]).
For `CC(C)(C)c1cc(-c2cc(C(C)(C)C)cc(C(C)(C)C)c2Op2oc3ccccc3c3ccccc3o2)c(Op2oc3ccccc3c3ccccc3o2)c(C(C)(C)C)c1` [Ligand F], the “concentration of Ligand F after 24 hours” value in data set [2] (0.017 grams H3PO3 added to 12 gram solution, decreased from 0.39, 24 hours) worked out at 0.12 percent by weight. Besides, the “concentration of Ligand F after 72 hours” value in data set [2] (0.017 grams H3PO3 added to 12 gram solution, initially 0.39, 72 hours) turned out to be 0.04 percent by weight. Also, in data set [2] (after either 24 or 72 hours, 200 ppm rhodium, 0.39 wt% Ligand F in butyraldehyde, no added acid or benzimidazole), the “change in concentration of Ligand F” value is given as “No change in the concentration”.
With `c1ccc2[nH]nnc2c1` [benzotriazole], the figures for the “K (amount of base in the water phase/amount of base in the organic phase)” value in data set [1] (setting [4]) and in data set [1] (setting [5]) were 0.08 and 0.00, respectively.
The corresponding values for `c1ccc2ncccc2c1` [quinoline] are 0.43 and 1.20.
As to hydroxy butyl phosphonic acid, in data set [3] (setting [6]), the “hydroxy butyl phosphonic acid in aldehyde phase after contact with water” value stood at 52.3 parts per million and the “hydroxy butyl phosphonic acid in water phase” value is reported as 414 parts per million. In addition, the “partition coefficient between the water and the butyraldehyde phase” value in data set [3] (water/butyraldehyde, 414/52.3) was found to be 7.92.
